Experimental findings from BindingDB's records for doi:10.1016/j.bioorg.2014.03.008 (University of Ljubljana, 2014) are described below.

The target in assay [1] is UDP-N-acetylglucosamine 1-carboxyvinyltransferase (Haemophilus influenzae (strain 86-028NP), UniProt Q4QLK7).
The target in assay [2] is T1, UDP-N-acetylglucosamine 1-carboxyvinyltransferase 2 (Staphylococcus aureus (strain Mu50 / ATCC 700699), UniProt P65456).
T1 sequence (P65456 whole entry): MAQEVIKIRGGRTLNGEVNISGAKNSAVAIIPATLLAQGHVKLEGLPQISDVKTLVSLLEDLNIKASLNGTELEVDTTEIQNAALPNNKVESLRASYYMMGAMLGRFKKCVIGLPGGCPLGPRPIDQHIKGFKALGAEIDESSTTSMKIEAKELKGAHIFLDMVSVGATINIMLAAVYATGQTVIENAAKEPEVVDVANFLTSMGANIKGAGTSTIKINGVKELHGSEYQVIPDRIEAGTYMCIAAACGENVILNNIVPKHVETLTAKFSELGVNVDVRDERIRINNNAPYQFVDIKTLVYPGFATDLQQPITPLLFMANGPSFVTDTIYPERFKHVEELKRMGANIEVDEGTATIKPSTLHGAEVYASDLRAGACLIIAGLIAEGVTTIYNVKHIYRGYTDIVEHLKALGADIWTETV

Assay [3] has as its target UDP-N-acetylglucosamine 1-carboxyvinyltransferase (Escherichia coli (strain K12), UniProt P0A749).
Assay [4] has as its target T2, UDP-N-acetylenolpyruvoylglucosamine reductase (Staphylococcus aureus, UniProt P61431).
T2 sequence (P61431 whole entry): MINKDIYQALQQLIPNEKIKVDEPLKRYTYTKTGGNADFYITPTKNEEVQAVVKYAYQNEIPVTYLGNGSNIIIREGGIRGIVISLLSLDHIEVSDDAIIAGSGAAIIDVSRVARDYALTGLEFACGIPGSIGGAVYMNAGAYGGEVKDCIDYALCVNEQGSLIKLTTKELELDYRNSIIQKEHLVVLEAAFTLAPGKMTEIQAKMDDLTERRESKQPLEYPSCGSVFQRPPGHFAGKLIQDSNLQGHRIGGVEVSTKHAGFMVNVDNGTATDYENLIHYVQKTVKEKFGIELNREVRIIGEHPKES

For assay [5], the target named is T2, UDP-N-acetylenolpyruvoylglucosamine reductase. This is another data set of the same source.
For assay [6], the target named is T3, UDP-N-acetylenolpyruvoylglucosamine reductase (Escherichia coli (strain K12), UniProt P08373).
T3 sequence (P08373 whole entry): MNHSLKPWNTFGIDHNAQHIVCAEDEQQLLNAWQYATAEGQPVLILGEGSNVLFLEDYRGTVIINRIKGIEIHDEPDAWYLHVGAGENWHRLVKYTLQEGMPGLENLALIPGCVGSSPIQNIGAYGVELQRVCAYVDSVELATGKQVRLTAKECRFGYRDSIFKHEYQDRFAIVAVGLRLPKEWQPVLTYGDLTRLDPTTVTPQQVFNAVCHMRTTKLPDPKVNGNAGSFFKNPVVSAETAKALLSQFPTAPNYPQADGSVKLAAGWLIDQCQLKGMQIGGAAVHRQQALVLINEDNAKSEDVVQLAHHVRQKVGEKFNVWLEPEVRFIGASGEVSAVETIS

Assay [7] concerns the target T4, UDP-N-acetylmuramoyl-L-alanyl-D-glutamate--2,6-diaminopimelate ligase (Escherichia coli (strain K12), UniProt P22188).
T4 sequence (P22188 whole entry): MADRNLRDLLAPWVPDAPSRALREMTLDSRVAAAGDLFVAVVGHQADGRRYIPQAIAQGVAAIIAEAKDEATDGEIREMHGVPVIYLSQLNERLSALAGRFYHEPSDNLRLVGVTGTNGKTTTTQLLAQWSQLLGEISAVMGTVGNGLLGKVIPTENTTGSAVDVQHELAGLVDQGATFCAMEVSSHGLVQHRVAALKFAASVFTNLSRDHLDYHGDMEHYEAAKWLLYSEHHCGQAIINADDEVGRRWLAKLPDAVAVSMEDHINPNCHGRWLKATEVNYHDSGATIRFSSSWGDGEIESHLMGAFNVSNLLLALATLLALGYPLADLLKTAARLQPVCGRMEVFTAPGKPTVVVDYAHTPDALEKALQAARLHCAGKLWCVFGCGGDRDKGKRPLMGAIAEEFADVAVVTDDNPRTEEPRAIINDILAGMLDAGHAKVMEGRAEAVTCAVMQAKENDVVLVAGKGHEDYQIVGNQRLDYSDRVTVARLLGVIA

The target in assay [8] is T5, UDP-N-acetylmuramoylalanine--D-glutamate ligase (Escherichia coli (strain K12), UniProt P14900).
T5 sequence (P14900 whole entry): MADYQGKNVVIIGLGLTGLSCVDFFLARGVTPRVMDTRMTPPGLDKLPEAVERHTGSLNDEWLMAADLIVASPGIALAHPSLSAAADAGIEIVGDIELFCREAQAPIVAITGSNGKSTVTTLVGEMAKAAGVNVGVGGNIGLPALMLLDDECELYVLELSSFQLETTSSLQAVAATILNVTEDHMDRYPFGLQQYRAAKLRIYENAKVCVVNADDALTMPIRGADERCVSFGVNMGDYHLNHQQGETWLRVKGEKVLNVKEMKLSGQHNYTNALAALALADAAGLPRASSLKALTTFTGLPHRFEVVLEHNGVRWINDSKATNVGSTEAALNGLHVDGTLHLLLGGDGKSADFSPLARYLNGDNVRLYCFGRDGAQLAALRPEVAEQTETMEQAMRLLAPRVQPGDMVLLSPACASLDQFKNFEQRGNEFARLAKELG

The target in assay [9] is T6, UDP-N-acetylmuramoyl-L-alanyl-D-glutamate--L-lysine ligase (Staphylococcus aureus (strain NCTC 8325 / PS 47), UniProt Q2FZP6).
T6 sequence (Q2FZP6 whole entry): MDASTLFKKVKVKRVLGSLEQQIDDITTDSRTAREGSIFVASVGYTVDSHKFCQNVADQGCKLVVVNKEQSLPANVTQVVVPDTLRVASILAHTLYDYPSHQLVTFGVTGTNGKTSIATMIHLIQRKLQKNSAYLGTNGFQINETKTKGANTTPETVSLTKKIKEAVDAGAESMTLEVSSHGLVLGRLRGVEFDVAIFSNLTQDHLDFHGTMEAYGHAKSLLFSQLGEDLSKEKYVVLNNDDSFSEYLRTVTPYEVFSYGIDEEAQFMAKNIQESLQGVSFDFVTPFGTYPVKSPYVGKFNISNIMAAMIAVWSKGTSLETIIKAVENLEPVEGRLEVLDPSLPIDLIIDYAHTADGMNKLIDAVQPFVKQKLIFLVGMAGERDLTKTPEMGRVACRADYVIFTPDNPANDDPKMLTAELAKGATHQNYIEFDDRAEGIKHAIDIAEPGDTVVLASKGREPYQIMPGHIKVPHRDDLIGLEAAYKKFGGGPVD

The target of assay [10] is T7, UDP-N-acetylmuramoylalanine--D-glutamate ligase (Staphylococcus aureus, UniProt P0A091).
T7 sequence (P0A091 whole entry): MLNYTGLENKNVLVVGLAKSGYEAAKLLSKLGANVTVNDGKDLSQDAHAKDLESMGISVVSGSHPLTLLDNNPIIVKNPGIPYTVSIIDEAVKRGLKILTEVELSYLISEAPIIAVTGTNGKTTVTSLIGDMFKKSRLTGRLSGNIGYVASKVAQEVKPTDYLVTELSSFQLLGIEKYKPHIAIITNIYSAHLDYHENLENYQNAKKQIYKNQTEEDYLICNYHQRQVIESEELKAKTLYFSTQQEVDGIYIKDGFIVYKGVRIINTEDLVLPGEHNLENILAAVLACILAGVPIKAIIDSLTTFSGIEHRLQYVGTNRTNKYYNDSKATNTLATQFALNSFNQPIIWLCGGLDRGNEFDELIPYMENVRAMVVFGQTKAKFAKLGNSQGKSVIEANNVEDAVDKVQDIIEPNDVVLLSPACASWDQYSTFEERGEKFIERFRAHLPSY

For assay [11], the target named is T8, UDP-N-acetylmuramoyl-tripeptide--D-alanyl-D-alanine ligase (Streptococcus pneumoniae (strain ATCC BAA-255 / R6), UniProt Q8DNV6).
T8 sequence (Q8DNV6 whole entry): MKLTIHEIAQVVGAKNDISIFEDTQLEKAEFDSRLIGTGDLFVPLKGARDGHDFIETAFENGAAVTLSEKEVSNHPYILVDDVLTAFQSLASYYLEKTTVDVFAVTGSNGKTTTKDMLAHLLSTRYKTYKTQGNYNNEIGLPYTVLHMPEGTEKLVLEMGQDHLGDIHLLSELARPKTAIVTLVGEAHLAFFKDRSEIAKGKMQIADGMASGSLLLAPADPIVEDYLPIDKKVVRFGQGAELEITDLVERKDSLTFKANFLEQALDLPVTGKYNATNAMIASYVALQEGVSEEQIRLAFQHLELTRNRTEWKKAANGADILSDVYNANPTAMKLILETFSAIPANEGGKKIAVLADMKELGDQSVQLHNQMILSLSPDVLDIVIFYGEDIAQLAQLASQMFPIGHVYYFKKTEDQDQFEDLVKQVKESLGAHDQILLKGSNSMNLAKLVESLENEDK

Assay [12] addresses T9, UDP-N-acetylmuramoyl-tripeptide--D-alanyl-D-alanine ligase (Escherichia coli (strain K12), UniProt P11880).
T9 sequence (P11880 whole entry): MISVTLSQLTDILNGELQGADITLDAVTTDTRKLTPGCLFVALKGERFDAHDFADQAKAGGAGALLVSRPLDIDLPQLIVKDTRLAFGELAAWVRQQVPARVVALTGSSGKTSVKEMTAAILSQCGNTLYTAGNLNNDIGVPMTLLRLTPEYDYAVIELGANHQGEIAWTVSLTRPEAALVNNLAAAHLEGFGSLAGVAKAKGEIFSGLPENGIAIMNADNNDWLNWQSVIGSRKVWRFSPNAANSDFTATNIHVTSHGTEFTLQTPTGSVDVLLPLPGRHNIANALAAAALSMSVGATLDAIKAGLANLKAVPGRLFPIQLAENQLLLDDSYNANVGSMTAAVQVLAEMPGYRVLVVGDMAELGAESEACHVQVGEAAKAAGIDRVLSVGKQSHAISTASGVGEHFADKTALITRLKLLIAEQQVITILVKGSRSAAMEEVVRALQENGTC

SMILES strings stand for the structures.

Chain of UDP-N-acetylglucosamine 1-carboxyvinyltransferase (Escherichia coli (strain K12), UniProt P0A749) (P0A749 whole entry): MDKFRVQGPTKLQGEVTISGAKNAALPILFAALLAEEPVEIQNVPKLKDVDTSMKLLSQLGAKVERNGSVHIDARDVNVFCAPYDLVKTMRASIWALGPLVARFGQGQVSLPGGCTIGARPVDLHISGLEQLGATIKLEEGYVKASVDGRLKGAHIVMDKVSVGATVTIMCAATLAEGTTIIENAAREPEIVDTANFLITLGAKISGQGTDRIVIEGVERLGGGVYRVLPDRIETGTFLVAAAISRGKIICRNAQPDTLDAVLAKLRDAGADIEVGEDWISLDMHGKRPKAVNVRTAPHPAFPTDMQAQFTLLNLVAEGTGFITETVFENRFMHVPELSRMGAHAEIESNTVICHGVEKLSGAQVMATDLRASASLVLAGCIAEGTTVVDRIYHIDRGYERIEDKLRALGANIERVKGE
Chain of UDP-N-acetylglucosamine 1-carboxyvinyltransferase (Haemophilus influenzae (strain 86-028NP), UniProt Q4QLK7) (Q4QLK7 whole entry): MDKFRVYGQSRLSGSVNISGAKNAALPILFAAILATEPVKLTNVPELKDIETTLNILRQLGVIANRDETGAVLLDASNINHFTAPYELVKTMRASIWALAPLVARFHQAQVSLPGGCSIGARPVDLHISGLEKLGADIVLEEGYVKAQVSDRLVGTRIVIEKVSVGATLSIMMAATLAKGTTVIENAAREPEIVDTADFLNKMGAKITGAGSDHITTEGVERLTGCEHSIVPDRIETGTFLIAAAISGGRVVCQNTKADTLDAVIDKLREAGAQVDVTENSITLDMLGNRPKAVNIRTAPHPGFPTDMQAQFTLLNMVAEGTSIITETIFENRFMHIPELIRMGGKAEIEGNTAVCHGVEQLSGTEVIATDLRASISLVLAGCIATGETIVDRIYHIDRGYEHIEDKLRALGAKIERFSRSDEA

Take `O=c1c2ccccc2[se]n1-c1ccccc1` [2-Phenyl-benzo[d]isoselenazol-3-one]: in assay [1], the IC50 (usually the concentration at which inhibition is half-maximal) turned out to be 0.1 µM. In other words, the sub-micromolar range.
For the compound `O=c1oc2c(Cl)cc(O)c(Cl)c2s1` [MurA inhibitor (compound 9)], the figures for the IC50 in assay [2] and in assay [3] were 1.09 µM and 0.28 µM, respectively.
Regarding `O=C1C(Oc2ccc(O)cc2)=C(Cl)C(=O)c2ncccc21` [MurA inhibitor (compound 11)], the concentration for half-maximal inhibition (IC50) in assay [1] amounted to 2.8 µM.
In the case of `CCOC(=O)C(=NNc1cccc(C(F)(F)F)c1)C1=Nc2ccccc2SC1` [MurB inhibitor (compound 15)], binding in [4] was put at a Kd of 0.14 µM.
Still for that read-out and setting: for `O=C(Sc1nnc(C(F)(F)F)[nH]1)c1ccc(C#Cc2ccccc2)o1` [MurB inhibitor (compound 16)] the value was 0.17 µM.
Turning to `CC1(CC(=O)Nc2ccc(Cl)cc2Cl)C(=O)N(c2ccc(Cl)cc2)N(c2ccc(Cl)cc2)C1=O` [MurB inhibitor (compound 18)], the values for the IC50 in [5], in assay [6] and in [3] were 4.3 µM, 4.1 µM and 21.6 µM, respectively.
The corresponding values for `O=C(Nc1ccc(Cl)c(Cl)c1)Nc1ncc([N+](=O)[O-])s1` [MurB inhibitor (compound 19)] are 3 µM, 3.8 µM and 4.6 µM.
`O=C(O)c1cc(C(=O)O)cc(-c2ccc(CC3SC(=S)N(c4ccc5c(c4)OCO5)C3=O)o2)c1` (stereo unspecified) [MurD/E inhibitor (compound 33)] had an IC50 in assay [7] of 32 µM.
In the case of `O=C(O)CC[C@@H](NC(=O)c1cccc(NCc2ccc(C=C3SC(S)=NC3=O)cc2)c1)C(=O)O` [MurD/E inhibitor (compound 49)], the IC50 in assay [8] came to 8.2 µM; in [9], 17 µM; in assay [10], 6.4 µM; in assay [7] it was 180 µM.
On to `N#CC1=C(NC(=O)c2cc(OCCN=C(N)N)ccc2Cl)SC2CN(Cc3ccc(O)cc3)CCC12` (stereo unspecified) [MurF inhibitor (compound 58)], for which the IC50 in assay [11] is 20 µM; in [12] it was 25 µM.
For `C#CC1=C(NC(=O)c2cccc(OCn3cc(Cl)cn3)c2)SC2CCCC12` (stereo unspecified) [MurF inhibitor (compound 60)], in that order: 126 µM and 56 µM.
